Test results: patent US20260098072A1, “METHODS OF STIMULATING APPETITE AND/OR INCREASING BODY WEIGHT USING NON-NATURALLY OCCURRING MELANOCORTIN RECEPTOR ANTAGONIST ANALOGS” (Endevica Bio, Inc., priority 2022, published 2026)
Values joined by “and” are separate entries in the source; they are usually repeats but may differ in a detail not shown here. Equal entries are not always repeated. “Also recorded” adds a separate entry of the source. Positions of bridges follow the written chain, without caps; N, C: chain ends. Non-standard residues stand in square brackets, D forms with d. Residues, ends and D or L forms follow the SMILES beside them. No end group written: not given here. d2Nal = N[C@H](Cc1ccc2ccccc2c1)C(=O)O; Nle = CCCC[C@H](N)C(=O)O

Experiments:
Lewis sarcoma rat = assay: Reversal of cachexia-induced lethargy; format: in vivo; conditions: once-daily peripheral dosing for 48 hours (2 IP doses)
Description: In animals and humans, cachexia produces “lethargy,” i.e., the aversion to activity. Grossberg et al., J. Neurosci. 31 (31): 11376-11386. […] This therapeutic effect is dependent on a stabilized non-naturally occurring melanocortin analog C-terminal extension. Video recordings characterized control animal behavior as neo-exploratory movement about the cage, i.e., repeated “sniffing” the air to presumably sample odors (e.g., neighboring animals), grooming, and intermittent bouts of eating and drinking. Caldecott-Hazard et al., J. Neurosci. 8 (6): 1951-1961 (1988).
The animal typically remains in one position for an extended period of time (>1 minute). Occasionally it will change position, assuming the new position for an extended period. The rats show no grooming behavior, evident in the appearance of their coat and eyes.

LPS model of cachexia = assay: LPS-induced cachexia assay in rats; format: in vivo, rat; conditions: for peripheral (IP) anti-cachexia activity / blood-brain barrier transport: peripheral administration
Method: The LPS model uses rats were maintained on a 12 h light/dark schedule with ad libitum access to food and water. Animals were handled daily for a minimum of three consecutive days to decrease non-specific handling stress. On the day of the experiment, individually housed animals received intraperitoneal injections of LPS dissolved in 0.5% low-endotoxin BSA, 0.9% saline or 0.5% BSA in 0.9% saline alone, and were returned to their home cage. The drug or control was administered (ICV, IP, or PO, depending on the type of study) 1-hour after LPS injection.
In the experiments performed in accordance with the present technology, a series of melanocortin receptor antagonist peptides were examined in a bacterial endotoxin inducing cachexia assay. For this assay, a rat is challenged with a single peripheral injection of lipopolysaccharide (LPS). LPS is a heat-stable lipo-polysaccharide, the major component of the outer membrane (capsule) of gram negative bacteria. In non-capsulated strains, it appears as a cell surface protein. LPS produces a strong immune response, including secretion of the proinflammatory cytokines Tumor Necrosis Factor α (TNFα) and interleukin-1 (IL-1). Proinflammatory cytokines are known factors that induce cachexia.
Rats are maintained on a 12-hour light/dark cycle. Animals are handled daily for a minimum of 5 consecutive days to acclimate them to the handling required for the experiment. […] On the day of the experiment, individually housed animals receive intraperitoneal (IP) injections of LPS dissolved in 0.5% low-endotoxin BSA, 0.9% saline or 0.5% BSA in 0.9% saline alone, and returned in their home cage. Melanocortin receptor antagonist peptides were administered (IP or by gavage, depending on the type of study) one hour after the LPS injection. The extent of cachexia is measured by the reduction in food intake, measured every two hours. The cachexia typically lasts only a single day. However, rats lose up to 5% of their body weight during a 12-hour light cycle, making up this loss plus food needed for normal growth during the 12-hour dark cycle. Thus, failure to eat appropriately during a single dark cycle is determinable from the animal's weight and any changes thereof.
A series of melanocortin receptor antagonist peptides were examined in a bacterial toxin inducing cachexia assay. In this assay, a rat was challenged with a single peripheral injection of lipopolysaccharide (LPS), a bacterial toxin that rapidly induces acute cachexia. The extent of cachexia was measured as a reduction in food intake, measured every two hours. The cachexia typically lasts only a single day.

human MC3R = biological target: T1, human MC3R (Homo sapiens, UniProt P41968); assay: cAMP accumulation assay (HTRF), antagonist activity at MC3R; format: cell-based; conditions: for Emax / IC50: HEK293/CRE-luc/MC3R; for Emax: 0.1 nM to 1,000 nM, read-out: Max Activation %; for IC50: estimated from dose-response curve
T1 construct: expressed in transfected cells; host or cells: HEK293/CRE-luc/MC3R
Method: (§1) The antagonist activity of exemplary non-naturally occurring melanocortin analogs (SEQ ID NOs: 3, 4, 6, 9-11, 14, 15, and 291-309) at the melanocortin 3 receptor (MC3R) and melanocortin 4 (MC4R) receptor was measured via cAMP accumulation assay, according to the following procedure.
(§2) Recombinant cell lines shown in Table 1 were stimulated with melanocortin receptor antagonists and evaluated for cyclic adenosine monophosphate (cAMP) levels as a measurement of receptor activation. cAMP levels were quantified using Homogeneous Time-Resolved Fluorescence (HTRF). The stimulation and CAMP measurement were performed sequentially. First, the compound stimulated the G-protein coupled receptor (GPCR) which then induced downstream signaling, which was measured soon after. Cell lines and stimulated receptors used are detailed in Table 1.
(§3) Twenty-seven exemplary synthetic peptides were tested for antagonist activity at the human MC3R and MC4R at concentrations ranging from 0.1 nM to 1,000 nM. After stimulation, the level of cyclic adenosine monophosphate (CAMP) in each well was quantified via Homogenous Time-Resolved Fluorescence (HTRF) as a measurement of receptor activity. Dose-response curves and estimated IC50 values were then obtained for each antagonist peptide against the MC3R and MC4R. HS024 (TFA) and was used as a positive control for the antagonist activity of MC3R (FIG. 1A) and MC4R (FIG. 1B).

human MC4R = biological target: T2, human MC4R (Homo sapiens, UniProt P32245); assay: cAMP accumulation assay (HTRF), antagonist activity at MC4R; format: cell-based; conditions: for Emax: HEK293, HEK293/MC4R/CRE-GFP, 0.1 nM to 1,000 nM, read-out: Max Activation %; for IC50: HEK293/MC4R/CRE-GFP, estimated from dose-response curve
T2 construct: expressed in transfected cells; host or cells: HEK293/MC4R/CRE-GFP
Method: as §1, §2, §3

[1] = TCMCB07 in plasma and cerebrospinal fluid after IV administration (blood-brain barrier transport); format: in vivo, rat
Method: Urethane-anesthetized rats had polyethylene (PE)-tubing cannulas placed in their femoral artery and vein. Each rat was then placed in a small animal stereotaxic apparatus, their head fixed in the lateral plane with ear bars, and their head placed in a 45-50° downward angle by placing their nose below an adjustable tooth bar. This position placed the animal's cistern magna at the highest vertical position of its body. The dural covering of the dorsal cistern magna was exposed.
A stainless steel cannula, with one end attached to PE-tubing, was placed in a stereotaxic tower cannula holder (open end down). The free end of the PE-tubing was attached to a 100 µL gas-tight Hamilton syringe with a 28-gauge needle. The cannula was adjusted to a position that approximated the middle of the exposed cistern magna, and the cannula lowered until it touched the dura mater. […] The dura has a degree of flexibility such that the cannula can depress it before it pierces it. […]
For the experimental procedure, baseline samples of blood and CSF were taken (“O” time points), followed by the IV administration of 750 nmol/kg TCMCB07. […] Both CSF and plasma were stored at −80° C. until analyzed by (HPLC) with spectrofluoremetric monitoring at 230 nm excitation and […] (the fluorescence maximum for the Nal residue). […]

[2] = Phase 1 clinical trial (NCT05529849), safety; format: in vivo, human; conditions: 5 SAD and 3 MAD cohorts
Description: Safety results of the single center, inpatient, double-blind, randomized, sequential assessment of 5 SAD (1a-5a) and 3 MAD (1b-3) cohorts dosed over 5 days TCMCB07 Phase 1 Clinical Trial (NCT05529849) have been summarized in FIG. 25. The entirety of the TCMCB07 Phase 1 Clinical Trial (NCT05529849) is incorporated herein by reference.

Lewis sarcoma rat model [3] = conditions: previously published results; cited from earlier work
Lewis sarcoma rat model [4] = assay: Lewis sarcoma rat model of cancer cachexia; format: in vivo; conditions: 2 nmol once per day
Method: This sarcoma is an aggressive form of cancer that produces significant cachexia. Popp et al., Cancer 49 (6): 1212-1220 (1982). In the protocol, “treatment” began 8-days after tumor implantation, with a significant decrease in food intake from baseline. Body composition was determined by NMR prior to tumor implantation, and on the final day of the experiment after tumor resection, by ECHO MRI (NMR). Tumor implantation produces cachexia on or about the sixth day. The non-naturally occurring melanocortin analog or saline was administered after day 8 and continued through day 12.

[5] = test system: urethane-anesthetized rats; conditions: rat, in vivo
Method: These studies were performed in urethane-anesthetized rats, since anesthesia is required for six-lead ECG monitoring. […] Initial selection of doses was guided by FDA exploratory IND studies with a recommendation for at least a 100-fold excess of the human dose.

T1 sequence (P41968 whole entry): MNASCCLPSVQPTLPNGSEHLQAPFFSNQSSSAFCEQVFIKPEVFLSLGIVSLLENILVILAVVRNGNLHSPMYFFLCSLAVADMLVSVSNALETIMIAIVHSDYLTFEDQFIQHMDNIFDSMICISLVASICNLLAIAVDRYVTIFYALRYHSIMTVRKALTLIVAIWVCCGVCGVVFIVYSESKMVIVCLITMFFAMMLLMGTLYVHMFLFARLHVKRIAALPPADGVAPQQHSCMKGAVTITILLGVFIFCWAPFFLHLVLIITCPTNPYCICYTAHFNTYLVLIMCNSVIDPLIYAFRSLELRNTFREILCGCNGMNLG
T2 sequence (P32245 whole entry): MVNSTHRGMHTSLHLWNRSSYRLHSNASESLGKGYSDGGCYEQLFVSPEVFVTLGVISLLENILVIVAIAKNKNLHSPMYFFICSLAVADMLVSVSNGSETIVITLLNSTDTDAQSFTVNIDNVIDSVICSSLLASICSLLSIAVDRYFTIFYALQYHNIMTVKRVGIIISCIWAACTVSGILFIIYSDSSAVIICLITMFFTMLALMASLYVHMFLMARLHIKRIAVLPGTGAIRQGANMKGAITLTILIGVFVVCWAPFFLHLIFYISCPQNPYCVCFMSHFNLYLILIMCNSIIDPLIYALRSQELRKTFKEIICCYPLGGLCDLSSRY

## CCCC[C@H](NC(C)=O)C(=O)N[C@H]1CC(=O)NCCCC[C@@H](C(=O)N2CCC[C@@H]2C(=O)N[C@@H](C(N)=O)C(C)C)NC(=O)[C@H](Cc2c[nH]c3ccccc23)NC(=O)[C@H](CCCNC(=N)N)NC(=O)[C@@H](Cc2ccc3ccccc3c2)NC(=O)[C@@H]2CCCN2C1=O [TCMCB02, Ac-Nle-c[Asp-Pro-dNal(2′)-Arg-Trp-Lys]-dPro-dVal-NH2] (Ac-[Nle]DP[d2Nal]RWK[dP][dV]-NH2; lactam 2-7)
Lewis sarcoma rat
  behavior (lethargy): restored “normal” behavior to rats
LPS model of cachexia; 2 mg/kg, IP
  body weight gain overnight: ~5%
LPS model of cachexia; 2 mg/kg, IP, baseline = previous 4-day average
  food intake, 12-hours overnight: 65 % of baseline
LPS model of cachexia
  anti-cachectic activity after ICV administration: equivalent to TCMCB01
  peripheral (IP) anti-cachexia activity / blood-brain barrier transport: has peripheral activity, significantly reversing LPS-induced cachexia; also recorded: produced anti-cachexia following peripheral administration
LPS model of cachexia; gavage (intra-gastric)
  oral activity / gastrointestinal transport: did not have oral activity; also recorded: had no oral activity
LPS model of cachexia; rat, in vivo
  anti-cachectic activity relative to the parent compound: 10 fold
Human MC3R
  Emax: 101%
  IC50: < 10 µM
Human MC3R; dose-response fit, MC3R
  Hill Coefficient: 1.03
  Top (%): 120.45%
Human MC4R
  Emax: 120%
  IC50: < 10 µM
Human MC4R; dose-response fit, MC4R
  Hill Coefficient: 0.69
  Top (%): 127.47%

## CCCC[C@H](NC(C)=O)C(=O)N[C@H]1CC(=O)NCCCC[C@@H](C(=O)N[C@@H](C(=O)N2CCC[C@@H]2C(N)=O)C(C)C)NC(=O)[C@H](Cc2c[nH]c3ccccc23)NC(=O)[C@H](CCCN=C(N)N)NC(=O)[C@@H](Cc2ccc3ccccc3c2)NC(=O)[C@@H]2CCCN2C1=O [TCMCB07, Ac-Nle-c[Asp-Pro-dNal(2′)-Arg-Trp-Lys]-dVal-dPro-NH2] (Ac-[Nle]DP[d2Nal]RWK[dV][dP]-NH2; lactam 2-7)
[1]; IV 750 nmol/kg, HPLC effluent by mass spectrometry
  presence in CSF / transport through the blood-brain-barrier: confirmed the presence of TCMCB07 in CSF; also recorded: direct physical evidence of TCMCB07 transport through the blood-brain-barrier
[1]; rat, plasma, 2 minutes post-intravenous administration, 750 nmol/kg, read-out: Concentration in plasma
  level at time molar at 2 min: 7 µM
[2]
  CAEs: zero
  clinically relevant abnormal laboratory test results: zero
  clinically relevant abnormal physical exams: zero
  drug-related SAEs: zero
  patients having abnormal ECGs: zero
Human MC3R
  Emax: 112%
  IC50: < 10 µM and 0.0434 µM
Human MC4R
  Emax: 118%
  IC50: < 10 µM and 0.0269 µM

## AGRP: natural melanocortin system inhibitor; naturally occurring melanocortin antagonist protein (SSRRCVRLHESCLGQQVPCCDPCATCYCRFFNAFCYCRKLGTAMNPCSRT; ends and bridges not checked; cysteine pairing not given here; UniProt O00253 83-132, looked up)
Lewis sarcoma rat model [3]
  reversal of feeding / cachexia-anorexia syndrome in cachexia models: 100%

## Ac-Nle-c[Asp-His-DNal(2′)-Arg-Trp-Lys]-NH2 [SHU9119]
Lewis sarcoma rat model [4]
  reversal of anorexia: about 70 % of that observed with AGRP
[5]
  Peak Heart Rate Response (BPM): 16 ± 5/3 ± 14 BPM
  Peak MAP Response (Δ mm Hg): 16 ± 5/3 ± 14 mm Hg

## Ac-Nle-c[Asp-Pro-DNal(2′)-Arg-Trp-Lys]-β^3Pro-β^2Val-NH2 [TCMCB05]
Lewis sarcoma rat
  behavior (lethargy): restored “normal” behavior to rats
LPS model of cachexia; 0.2 mg/kg intraperitoneally
  food intake and body weight, 24-hours: had stimulated appetites and gained weight
LPS model of cachexia
  anti-cachectic activity after ICV administration: molar activity equivalent to TCMCB02
  peripheral (IP) anti-cachexia activity / blood-brain barrier transport: had IP anti-cachexia activity; also recorded: had peripheral anti-cachexia activity
LPS model of cachexia; ICV-administration
  molar activity relative to TCMCB02: 10 fold
